The target of one experiment is T1, human orexin-2 receptor (Homo sapiens, UniProt O43614).
T1 construct: expressed in transfected cells; host or cells: CHO cells
T1 sequence (O43614 1-444): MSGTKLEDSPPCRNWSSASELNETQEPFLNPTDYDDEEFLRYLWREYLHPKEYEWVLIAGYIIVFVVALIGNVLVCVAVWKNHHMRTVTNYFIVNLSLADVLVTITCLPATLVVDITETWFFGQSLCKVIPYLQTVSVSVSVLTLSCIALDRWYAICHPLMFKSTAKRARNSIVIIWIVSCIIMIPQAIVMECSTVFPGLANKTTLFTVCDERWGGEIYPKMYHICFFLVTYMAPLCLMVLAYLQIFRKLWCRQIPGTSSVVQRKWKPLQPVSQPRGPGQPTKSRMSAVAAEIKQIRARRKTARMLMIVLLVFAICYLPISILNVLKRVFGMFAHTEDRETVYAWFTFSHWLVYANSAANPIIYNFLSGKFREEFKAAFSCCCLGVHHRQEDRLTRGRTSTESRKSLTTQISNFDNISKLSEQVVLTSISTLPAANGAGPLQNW
Nature of the experiment: FLIPR Ca2+ Flux Assay, CHO cells expressing the human orexin-2 receptor. It is filed as cell-based. The conditions noted are these: agonist 70 pM Ala-6,12 orexin-A, read-out: hOX2R FLIPR IC50. Here is the method:
The utility of the compounds in accordance with the present invention as orexin receptor OX1R and/or OX2R antagonists may be readily determined without undue experimentation by methodology well known in the art, including the “FLIPR Ca^2+ Flux Assay” (Okumura et al., Biochem. Biophys. Res. Comm. 280:976-981, 2001). In a typical experiment the OX1 and OX2 receptor antagonistic activity of the compounds of the present invention was determined in accordance with the following experimental method. For intracellular calcium measurements, Chinese hamster ovary (CHO) cells expressing the rat orexin-1 receptor or the human orexin-2 receptor, are grown in Iscove's modified DMEM containing 2 mM L-glutamine, […], 1% hypoxanthine-thymidine supplement, 100 U/ml penicillin, 100 μg/ml streptomycin and 10% heat-inactivated fetal calf serum (FCS). The cells are seeded at 20,000 cells/well into Becton-Dickinson black 384-well clear bottom sterile plates coated with poly-D-lysine. All reagents were from GIBCO-Invitrogen Corp. The seeded plates are incubated overnight at 37° C. and 5% CO2. Ala-6,12 human orexin-A as the agonist is prepared as a 1 mM stock solution in 1% bovine serum albumin (BSA) and diluted in assay buffer (HBSS containing 20 mM HEPES, 0.1% BSA and 2.5 mM probenecid, pH7.4) for use in the assay at a final concentration of 70 pM. Test compounds are prepared as 10 mM stock solution in DMSO, then diluted in 384-well plates, first in DMSO, then assay buffer. On the day of the assay, cells are washed 3 times with 100 μl assay buffer and then incubated for 60 min (37° C., 5% CO2) in 60 μl assay buffer containing 1 μM Fluo-4AM ester, 0.02% pluronic acid, and 1% BSA. The dye loading solution is then aspirated and cells are washed 3 times with 100 μl assay buffer. 30 μl of that same buffer is left in each well. Within the Fluorescent Imaging Plate Reader (FLIPR, Molecular Devices), test compounds are added to the plate in a volume of 25 μl, incubated for 5 min and finally 25 μl of agonist is added. Fluorescence is measured for each well at 1 second intervals for 5 minutes and the height of each fluorescence peak is compared to the height of the fluorescence peak induced by 70 pM Ala-6,12 orexin-A with buffer in place of antagonist. For each antagonist, IC50 value (the concentration of compound needed to inhibit 50% of the agonist response) is determined. Alternatively, compound potency can be assessed by a radioligand binding assay (described in Bergman et. al. Bioorg. Med. Chem. Lett. 2008, 18, 1425-1430) in which the inhibition constant (Ki) is determined in membranes prepared from CHO cells expressing either the OX1 or OX2 receptor. The intrinsic orexin receptor antagonist activity of a compound which may be used in the present invention may be determined by these assays.

Another experiment has as its target T2, hOX1R (Homo sapiens, UniProt O43613).
T2 construct: expressed in transfected cells; host or cells: CHO cells
T2 sequence (O43613 1-425): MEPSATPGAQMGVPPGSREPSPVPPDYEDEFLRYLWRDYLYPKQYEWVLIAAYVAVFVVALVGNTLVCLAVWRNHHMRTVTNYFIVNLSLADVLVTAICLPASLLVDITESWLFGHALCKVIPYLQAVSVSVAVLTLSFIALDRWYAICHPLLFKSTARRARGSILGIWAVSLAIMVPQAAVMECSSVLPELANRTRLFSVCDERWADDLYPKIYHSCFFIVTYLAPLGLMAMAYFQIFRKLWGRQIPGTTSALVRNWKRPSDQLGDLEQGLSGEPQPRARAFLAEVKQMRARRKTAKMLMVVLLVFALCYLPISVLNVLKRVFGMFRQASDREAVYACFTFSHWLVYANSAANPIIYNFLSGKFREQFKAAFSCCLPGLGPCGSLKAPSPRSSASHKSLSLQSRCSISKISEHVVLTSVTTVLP
Nature of the experiment: FLIPR Ca2+ Flux Assay, CHO cells expressing the orexin-1 receptor. It is filed as cell-based. The conditions noted are these: agonist 70 pM Ala-6,12 orexin-A. (Calcium assays in cells follow changes in intracellular calcium, usually with a dye or a luminescent sensor.)

Usually IC50 stands for the midpoint of a concentration-inhibition curve. Take `COC(=O)c1c(OC)ccnc1N[C@@H]1CC[C@@H](C)N(C(=O)c2ccc(F)cc2-c2ncccn2)C1` [Example 13, methyl 2-({(3R,6R)-1-[(4-fluoro-2-pyrimidin-2-ylphenyl)carbonyl]-6-methylpiperidin-3-yl}amino)-4-methoxypyridine-3-carboxylate]: the results for the IC50 on human orexin-2 receptor and at hOX1R were 44 nM and 138 nM, respectively.

Turning to `COC(=O)c1c(OC)ccnc1N[C@@H]1CC[C@@H](C)N(C(=O)c2cc(F)ccc2-c2ncccn2)C1` [Example 14, methyl 2-({(3R,6R)-1-[(5-fluoro-2-pyrimidin-2-ylphenyl)carbonyl]-6-methylpiperidin-3-yl}amino)-4-methoxypyridine-3-carboxylate], the results for the IC50 on human orexin-2 receptor and on hOX1R were 51 nM and 83 nM, respectively.

Turning to `COC(=O)c1c(OC)ccnc1N[C@@H]1CC[C@@H](C)N(C(=O)c2ccccc2-n2nccn2)C1` [Example 2, Methyl 4-methoxy-2-{[(3R,6R)-6-methyl-1-{[2-(2H-1,2,3-triazol-2-yl)phenyl]carbonyl}-piperidin-3-yl]amino}pyridine-3-carboxylate], the IC50 turned out to be 25 nM on human orexin-2 receptor and 53 nM at hOX1R.

Source of the values: US9676751B2, “2-amino-3-ester-pyridl orexin receptor antagonists” (MERCK SHARP & DOHME CORP., priority 2013, dated 2017).
